Measurements published in patent publication US10118894B2, “Isoindolinone derivatives useful as antiviral agents” (priority 2014, dated 2018).

Tested on: HIV
Assay: MT4 Assay (anti-HIV activity)
Assay type: cell-based
Conditions: Human immunodeficiency virus 1, MT4, 96 h, read-out: HIV MT4 Assay IC50
Procedure: Antiviral HIV activity and cytotoxicity values for compounds of the invention from Table 1 were measured in parallel in the HTLV-1 transformed cell line MT-4 based on the method previously described (Hazen et al., 2007, In vitro antiviral activity of the novel, tyrosyl-based human immunodeficiency virus (HIV) type 1 protease inhibitor brecanavir (GW640385) in combination with other antiretrovirals and against a panel of protease inhibitor-resistant HIV (Hazen et al., “In vitro antiviral activity of the novel, tyrosyl-based human immunodeficiency virus (HIV) type 1 protease inhibitor brecanavir (GW640385) in combination with other antiretrovirals and against a panel of protease inhibitor-resistant HIV”, Antimicrob. Agents Chemother. 2007, 51: 3147-3154; and Pauwels et al., “Sensitive and rapid assay on MT-4 cells for the detection of antiviral compounds against the AIDS virus”, J. of Virological Methods 1987, 16: 171-185).
Luciferase activity was measured 96 hours later by adding a cell titer glo (Promega, Madison, Wis.). Percent inhibition of cell protection data was plotted relative to no compound control. Under the same condition, cytotoxicity of the compounds was determined using cell titer Glo™ (Promega, Madison, Wis.). IC50s were determined from a 10 point dose response curve using 3-4-fold serial dilution for each compound, which spans a concentration range >1000 fold.
These values are plotted against the molar compound concentrations using the standard four parameter logistic equation: y=((Vmax*x^n)/(K^n+x^n))+Y2

Structure (SMILES) | IC50
Cc1c2c(c(C)c(C(OC(C)(C)C)C(=O)O)c1-c1ccc(Cl)cc1)C(=O)N(Cc1ccccc1)C2 (stereo not shown) [Example 3, 2-(2-benzyl-6-(4-chlorophenyl)-4,7-dimethyl-3-oxoisoindolin-5-yl)-2-(tert-butoxy)acetic acid] | 86 nM
Cc1c(-c2c(C)c3c(c(C)c2[C@H](OC(C)(C)C)C(=O)O)C(=O)N(Cc2ccccc2)C3)cc(F)c2c1NCCO2 (atropisomer, axis not shown; (M)) [Example 7, (S)-2-((M)-2-benzyl-6-(8-fluoro-5-methyl-3,4-dihydro-2H-benzo[b][1,4]oxazin-6-yl)-4,7-dimethyl-3-oxoisoindolin-5-yl)-2-(tert-butoxy)acetic acid] | 14 nM
Cc1c2c(c(C)c(C(OC(C)(C)C)C(=O)O)c1-c1ccc3c(c1)CCCO3)C(=O)N(Cc1ccccc1)C2 (stereo not shown) [Example 4, 2-(2-benzyl-6-(chroman-6-yl)-4,7-dimethyl-3-oxoisoindolin-5-yl)-2-(tert-butoxy)acetic acid] | 52 nM
Cc1c(-c2c(C)c3c(c(C)c2[C@H](OC(C)(C)C)C(=O)O)C(=O)N(Cc2ccccc2)C3)cc(F)c2c1CCCO2 (atropisomer, axis not shown; (M)) [Example 5, (S)-2-((M)-2-Benzyl-6-(8-fluoro-5-methylchroman-6-yl)-4,7-dimethyl-3-oxoisoindolin-5-yl)-2-(tert-butoxy)acetic acid] | 5 nM
Cc1ccc(-c2c(C)c3c(c(C)c2C(OC(C)(C)C)C(=O)O)C(=O)N(Cc2ccccc2)C3)cc1 (stereo not shown) [Example 1, 2-(2-Benzyl-4,7-dimethyl-3-oxo-6-(p-tolyl)isoindolin-5-yl)-2-(tert-butoxy)acetic acid] | 25 nM
Cc1c2c(c(C)c([C@H](OC(C)(C)C)C(=O)O)c1C1=CCC(C)(C)CC1)C(=O)N(Cc1ccccc1)C2 [Example 6, (S)-2-(2-benzyl-6-(4,4-dimethylcyclohex-1-en-1-yl)-4,7-dimethyl-3-oxoisoindolin-5-yl)-2-(tert-butoxy)acetic acid] | 36 nM
Cc1ccc(-c2c(C)c3c(c(C)c2[C@H](OC(C)(C)C)C(=O)O)C(=O)N(Cc2ccccc2)C3)cc1 [Example 2] | 42 nM
